Entries after “also recorded” stand apart in the source; their conditions may differ. Each block holds one molecule with its values, some of them ahead of it.
Experiments:
[1] = test system: gastric damage; test: Incidence of gastric damage at end of the leukocyte adherence experiment; settings: for Percent Incidence of Gastric Damage: intragastric 30 μmol/kg (naproxen and Compound XX 60 μmol/kg), end of experiment
From the text: (§1) Briefly, post-capillary mesenteric venules in anestheitized rats are examined under a light microscope.

[2] = target: COX-1 (Homo sapiens, UniProt P23219); settings: FIG. 16
Description: Aliquots (0.5 mL) of blood from healthy human volunteers were added to glass tubes containing 10 uL of methanol alone, or one of the test drugs prepared such that the final concentration would be 0.1, 0.3, 1 or 3 μM. The tubes were placed in water bath (37° C.) with gentle shaking for 45 min, after which they were centrifuged (1,000×g) for 10 minutes. The concentration of thromboxane B2 in each sample was then determined using a specific ELISA, as in the studies shown in FIG. 11.

[3] = test system: leukocyte adherence to the vascular endothelium; test: Leukocyte adherence after NSAID or derivative, intravital microscopy (Example 21); assay type: in vivo, rat; settings: for number of adherent leukocytes compared to the parent drug alone: comment on Table 2
From the text: as §1

[4] = H2S generation in buffer and liver homogenate (Example 15); assay type: in vitro ADME, rat; settings: 1 mM compound, FIG. 6
Description: (Compound XXVII) was tested for H2S generation under three different conditions. Concentrations of H2S that were generated within 1 hour from 1 mM concentrations of L-cysteine, 4-HBT (4-hydroxythiobenzamide) and 5-amino-2-(4-thiocarbamoyl-phenoxycarbonyloxy)-benzoic acid were measured. H2S release was tested under three conditions: (i) when the compound was in buffer, (ii) when the compound was in a liver homogenate, and (iii) when the compound was in the liver homogenate together with an inhibitor of cystathionine γ-lyase (PAG=DL-propargylglycine; 2 mM). Results are shown in FIG. 6. *p<0.05 compared to the release from the vehicle group. ^ψp>0.05 versus the corresponding ‘homogenate’ group. The enzymatic capacity for H2S production was determined using the same reactor as described previously (Khan et al. (1980) Microchem J 25: 388-395, incorporated herein by reference). Two ml of an assay reaction mixture was introduced in the reactor. The mixture contained 1 mM L-cysteine (or compound), 2 mM pyridoxal 5′-phosphate, 100 mM potassium phosphate buffer (pH=7.4). A constant stream of nitrogen was passed through the mixture via gas-inlet capillary. Reactions were initiated by transferring the tubes from ice bath to a 37° C. water bath. The stream of nitrogen carried the sulfide acid in the second reactor containing 4 ml of sulfide anti-oxidant buffer (SAOB) solution, consisting of 2M KOH, 1M salicylic acid and 0.22M ascorbic acid at pH 12.8[5]. After incubating at 37° C. for 90 minutes, 1 ml of 10% trichloroacetic acid solution was added to mixture to stop the reaction. The remainder H2S in the mixture was carried out via nitrogen stream by other 60 minutes of incubation at 37° C. The concentration of sulfide in SAOB solution was measured with a sulfide sensitive electrode (Model 9616 S^2−/Ag^+ electrode, Orion Research, Beverly, Mass., USA). For studies in which the test compounds were incubated in liver homogenate, 100-150 mg of isolated rat livers were homogenized in 1 ml of ice-cold T-PER protein extractor. The homogenates were added to the reaction mixture at a concentration of 10% (wt/vol). DL-propargylglycine 2 mM was incubated with liver homogenates for 5 min at 37° C. prior the enzyme reaction. Khan, S. U. Morris, G. F. and Hidiroglou, M. (1980) Rapid estimation of sulfide in rumen and blood with a sulfide-specific ion electrode. Microchem J. 25:388-395, incorporated herein by reference.

[5] = test system: visceral pain perception; test: Rat model of visceral pain perception (colorectal distension, AWR score); assay type: in vivo
Description: A rat model of visceral pain perception, a pre-clinical model of irritable bowel syndrome, was used in the following example. Rats (male, Wistar, 200-250 g, obtained from Charles River, Monza, Italy), were housed in plastic cages and maintained under controlled conditions with 12-hours light/dark cycle with lights on at 7.00 AM. Tap water and standard laboratory chow were freely available. Before experiments, rats were individually trained by spending 2-3 hours per day in a plexiglass cage for 2-3 days. It allowed them to adjust to a movement-restriction environment. Food was withheld for 12 hours before colorectal distension (CRD) recording were performed. Experiments were performed in awake rats and were conducted in a blind manner in that the observer was not aware of the identity of drug administered to each animal.
In the testing day, rats were sedated with ether inhalation and a 2 cm long latex balloon was inserted intrarectally 2 cm from the anal verge and fixed at the base of the tail. The balloon was connected via a double-barreled cannula to a pressure transducer to continuously monitoring the rectal pressure by a computer (PowerLab PC, A.D. Instruments, Milford, Mass., USA) and to a syringe for inflation/deflation of the balloon. The rats were then housed in a small cage (20×8×8 cm) on an elevated Plexiglas™ platform and allowed to wake up and adapt for 1 hour. After recovery from sedation, animals underwent the CRD procedure and behavioral responses were tested. The night before the experiments, the balloons were inflated and left overnight so the latex stretched and the balloons became compliant.
CRD of 20 seconds, performed every 5 minutes, was applied in increment of 0.4 ml starting from 0.4 ml up to 1.6 ml water. To achieve an accurate measurement of the colonic parameters and perception, the distensions were repeated twice for each intensity and data for each animal were averaged for analysis. Each animal underwent a double set of CRD. Twenty minutes after the first sequence of CRD (0.4 mL-1.6 ml water), drugs were administered intraperitoneally (i.p.) and a second set of CRD was performed. Behavioral responses during the first and the second set of CRD were assessed and compared.
Behavioral response to CRD was assessed by measuring the abdominal withdrawal reflex (AWR) using a semiquantitative score (1).
A rat model of visceral pain perception as described above was used to compare pain perception scores for 5-amino-2-(4-thiocarbamoyl-phenoxycarbonyloxy)-benzoic acid (Compound XXVII) with or without glibenclamide, an inhibitor of ATP-sensitive K^+ (KATP) channels.
Experiments were carried out as described in Example 13, except that groups of 5 rats each were treated with vehicle, trimebutine maleate (10 mg/kg), or with equimolar doses of trimebutine thiocarbamoylbenzoate (Compound III) or thiocarbamolybenzoate alone.

[6] = test system: carrageenan-induced paw edema; test: Carrageenan hindpaw edema model; assay type: in vivo, rat; settings: oral 30 min prior to carrageenan; diclofenac 1, 3 or 10 mg/kg; Compound XVII equimolar to diclofenac 3 mg/kg; FIG. 14
Description: Male, Wistar rats weighing 175-200 g were given the test compounds orally 30 min prior to subplantar injection of 100 ul of 1% lambda carrageenan.

[7] = target: T1, COX-1 (Rattus norvegicus, UniProt Q63921); test: Whole blood thromboxane B2 synthesis in treated rats; assay type: in vivo; settings: 60 μmol/kg oral; versus vehicle; FIG. 11
T1 construct: whole blood thromboxane synthesis, which occurs via COX-1; from tissue; host or cells: rat whole blood, ex vivo after oral dosing
T1 sequence (Q63921 27-602): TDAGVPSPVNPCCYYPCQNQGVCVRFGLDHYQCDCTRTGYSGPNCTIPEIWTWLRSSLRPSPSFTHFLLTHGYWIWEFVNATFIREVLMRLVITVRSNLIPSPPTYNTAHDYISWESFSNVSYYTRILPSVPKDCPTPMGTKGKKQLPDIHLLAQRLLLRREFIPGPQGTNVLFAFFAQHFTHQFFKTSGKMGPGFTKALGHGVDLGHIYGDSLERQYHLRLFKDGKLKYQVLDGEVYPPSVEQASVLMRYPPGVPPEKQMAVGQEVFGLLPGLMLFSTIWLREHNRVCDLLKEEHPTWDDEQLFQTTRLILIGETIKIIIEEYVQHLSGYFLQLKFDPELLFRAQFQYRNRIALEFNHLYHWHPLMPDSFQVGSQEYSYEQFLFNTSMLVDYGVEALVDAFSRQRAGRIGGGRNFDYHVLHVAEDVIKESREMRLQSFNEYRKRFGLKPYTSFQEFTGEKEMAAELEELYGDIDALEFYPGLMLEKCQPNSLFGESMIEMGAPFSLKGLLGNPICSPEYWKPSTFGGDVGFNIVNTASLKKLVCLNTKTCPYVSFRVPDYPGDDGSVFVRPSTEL
Description: Inhibition of COX-1 was also measured using the same rats. […] The samples were then centrifuged for 3 min at 9,000 g and the supernatant was frozen at −80° C. for subsequent measurement of thromboxane B2 concentrations using a specific ELISA.
Inhibition of COX-1 was also measured using the same rats, using the same method as described for FIG. 11.

[8] = test system: gastric damage; test: Gastric damage score 3 h after oral dosing; assay type: in vivo, rat; settings: oral 60 μmol/kg, 3 hours; FIG. 10
From the text: There were 5 rats in each group.
Each group consisted of 5 rats.

[9] = test system: gastric ulcers; test: Healing of acetic acid-induced gastric ulcers; assay type: in vivo, rat; settings: oral twice-daily for 4 days; 30 μmol/kg (naproxen, Compound XX 60 μmol/kg); FIG. 17
Description: Gastric ulcers were induced via serosal application of acetic acid, as described by Elliott et al., A nitric oxide-releasing nonsteroidal anti-inflammatory drug accelerates gastric ulcer healing in rats. […] After 4 days of such treatment, the rats were euthanized and the stomach was excised and photographed. The area (in mm^2) of the ulcer was determined planimetrically by an individual unaware of the treatments given to the rats.

Sequence of COX-1 (Homo sapiens, UniProt P23219) (P23219 24-599): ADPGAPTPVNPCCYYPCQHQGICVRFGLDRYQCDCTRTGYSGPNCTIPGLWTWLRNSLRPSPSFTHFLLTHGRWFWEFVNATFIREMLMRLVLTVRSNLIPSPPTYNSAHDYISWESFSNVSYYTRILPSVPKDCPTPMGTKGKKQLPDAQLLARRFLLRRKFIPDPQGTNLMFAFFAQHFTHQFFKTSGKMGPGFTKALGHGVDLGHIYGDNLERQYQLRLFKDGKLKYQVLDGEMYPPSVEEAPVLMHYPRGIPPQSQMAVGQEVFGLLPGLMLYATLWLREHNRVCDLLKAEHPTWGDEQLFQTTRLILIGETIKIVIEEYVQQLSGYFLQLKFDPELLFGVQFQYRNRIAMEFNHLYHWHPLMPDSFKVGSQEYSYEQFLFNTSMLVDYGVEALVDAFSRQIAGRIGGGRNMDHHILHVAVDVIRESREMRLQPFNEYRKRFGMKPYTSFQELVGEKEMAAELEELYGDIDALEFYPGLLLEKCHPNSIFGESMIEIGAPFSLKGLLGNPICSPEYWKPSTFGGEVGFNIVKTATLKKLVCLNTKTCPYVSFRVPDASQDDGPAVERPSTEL

SMILES: COc1ccc2c(c1)c(CC(=O)Oc1ccc(C(N)=S)cc1)c(C)n2C(=O)c1ccc(Cl)cc1 [Compound XIX, [1-(4-Chloro-benzoyl)-5-methoxy-2-methyl-1-H-indol-3-yl]-acetic acid 4-thiocarbamoyl-phenyl ester]
- melting point: 224 to 226 °C
- Percent Incidence of Gastric Damage [1]: 0%
- thromboxane synthesis by human blood (COX-1 activity) ([2]; 0.1, 0.3, 1 or 3 μM, 45 min, 37° C.): concentration-dependent inhibition of COX-1 activity
- thromboxane synthesis by human blood (COX-1 activity) versus indomethacin ([2]; concentrations of 1 and 3 μM): significantly greater (*p<0.05) inhibition of COX-1 activity than that produced by indomethacin
- Number of Adherent Leukocytes ([3]; intragastric 30 μmol/kg (naproxen and Compound XX 60 μmol/kg), mean±SEM): 3.0 ± 0.4 per 100 μm vessel length

SMILES: N[C@@H](CS)C(=O)O [L-cysteine, reference compound]
- H2S generation in buffer ([4]; buffer pH 7.4, 37° C.): did not release significant H2S
- H2S generation in liver homogenate with PAG ([4]; liver homogenate plus DL-propargylglycine 2 mM): markedly inhibited by PAG

SMILES: CCC(COC(=O)c1cc(OC)c(OC)c(OC)c1)(c1ccccc1)N(C)C.NC(=S)c1ccc(C(=O)O)cc1 (centres unmarked) [trimebutine thiocarbamoylbenzoate, 3,4,5-trimethoxybenzoic acid 2-(dimethylamino)-2-phenylbutyl ester 4-thiocarbamoyl benzoate]
- perception score (AWR Score) ([5]; doses equimolar to trimebutine maleate 10 mg/kg, FIG. 7): more effective than either trimebutine maleate or thiocarbamoylbenzoate in reducing visceral pain

- melting point: 120 to 122 °C
SMILES: Cc1ccc(Nc2c(F)cccc2Cl)c(CC(=O)Oc2ccc(C(N)=S)cc2)c1 [Compound XVIII, 4-thiocarbamoylphenyl 2-(2-(2-chloro-6-fluorophenylamino)-5-methylphenyl)acetate]
- percent incidence of gastric damage compared to the parent drug alone ([1]; comment on Table 2): no incidences of gastric damage
- Percent Incidence of Gastric Damage [1]: 0%
- number of adherent leukocytes compared to the parent drug alone [3]: significantly reduced the number of adherent leukocytes

SMILES: O=C(O)Cc1ccccc1Nc1c(Cl)cccc1Cl [diclofenac, reference compound]
- paw edema (paw volume increase) [6]: dose-dependently reduced paw edema

SMILES: CC(=O)Oc1ccccc1C(=O)Oc1ccc(C(N)=S)cc1 [Compound XVI, 2-Acetoxy-benzoic acid 4-thiocarbamoyl-pheny ester]
- melting point: 154 to 156 °C
- percent incidence of gastric damage compared to the parent drug alone ([1]; comment on Table 2): significantly reduced the percent incidence of gastric damage
- Percent Incidence of Gastric Damage [1]: 0%
- number of adherent leukocytes compared to the parent drug alone [3]: significantly reduced the number of adherent leukocytes

SMILES: COc1ccc2cc(C(C)C(=O)Oc3ccc(C(N)=S)cc3)ccc2c1 (centres unmarked) [Compound XX, 2-(6-Methoxy-naphthalen-2-yl)-propionic acid 4-thiocarbamyl-phenyl ester]
- percent incidence of gastric damage compared to the parent drug alone ([1]; rat, in vivo): significantly reduced the percent incidence of gastric damage
- thromboxane B2 synthesis in blood (COX-1 activity) [7]: significantly (*p<0.05) inhibited COX-1 activity
- gastric damage score [8]: significantly less damage than naproxen itself; also recorded: not detectable
- number of adherent leukocytes compared to the parent drug alone [3]: significantly reduced the number of adherent leukocytes
- gastric ulcer healing (ulcer surface area) [9]: significantly greater healing

SMILES: COc1ccc(Cl)cc1C(=O)NCCc1ccc(S(=O)(=O)NC(=O)NC2CCCCC2)cc1 [glibenclamide, reference compound]
- pain perception score after glibenclamide pretreatment ([5]; 0.8 mL colorectal distention, glibenclamide 10 mg/kg i.p. 30 min before, FIG. 3): did not affect the pain perception

From patent publication US8314140B2, “4-hydroxythiobenzamide derivatives of drugs” (Antibe Therapeutics Inc., priority 2006, dated 2012)
